According to ChEMBL document CHEMBL4482311, “Modulators of Prostate-Specific G-Protein Receptor (PSGR/OR51E2) and Methods of Using Same” (2018):
Calls of active or inactive are those of the source.

Assays:
Assay type in all cases: cell-based
[1] = target: T1, Olfactory receptor 51E2 (Homo sapiens) (UniProt Q9H255); assay: Agonist activity at PSGR/OR51E2 in human LNCaP cells assessed as induction of change in intracellular metabolites level by measuring O-methylphosphate level at 250 uM incubated for 72 hrs by GC/MS analysis
T1 sequence (whole entry): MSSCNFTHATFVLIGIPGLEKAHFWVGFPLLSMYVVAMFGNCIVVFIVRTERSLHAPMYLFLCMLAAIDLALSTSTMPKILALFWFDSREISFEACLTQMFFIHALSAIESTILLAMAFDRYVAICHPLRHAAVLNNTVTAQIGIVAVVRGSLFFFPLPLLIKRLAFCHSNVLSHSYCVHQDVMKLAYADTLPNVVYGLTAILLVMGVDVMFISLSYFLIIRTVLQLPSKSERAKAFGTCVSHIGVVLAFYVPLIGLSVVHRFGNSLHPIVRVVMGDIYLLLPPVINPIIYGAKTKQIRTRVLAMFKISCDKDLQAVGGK

[2] = target: T1, Olfactory receptor 51E2 (Homo sapiens); assay: Agonist activity at PSGR/OR51E2 in human LNCaP cells assessed as induction of change in intracellular metabolites level by measuring inosine level at 250 uM incubated for 72 hrs by GC/MS analysis
[3] = target: T1, Olfactory receptor 51E2 (Homo sapiens); assay: Agonist activity at PSGR/OR51E2 in human LNCaP cells assessed as induction of change in intracellular metabolites level by measuring lactic acid level at 250 uM incubated for 72 hrs by GC/MS analysis
[4] = target: T1, Olfactory receptor 51E2 (Homo sapiens); assay: Agonist activity at PSGR/OR51E2 in human LNCaP cells assessed as induction of change in extracellular metabolites level by measuring cystine level at 250 uM incubated for 72 hrs by GC/MS analysis
[5] = target: T1, Olfactory receptor 51E2 (Homo sapiens); assay: Agonist activity at PSGR/OR51E2 in human LNCaP cells assessed as induction of change in extracellular metabolites level by measuring xanthine level at 250 uM incubated for 72 hrs by GC/MS analysis
[6] = target: T1, Olfactory receptor 51E2 (Homo sapiens); assay: Agonist activity at PSGR/OR51E2 in human LNCaP cells assessed as induction of change in intracellular metabolites level by measuring ethanolamine level at 250 uM incubated for 72 hrs by GC/MS analysis
[7] = target: T1, Olfactory receptor 51E2 (Homo sapiens); assay: Agonist activity at PSGR/OR51E2 in human LNCaP cells assessed as induction of change in extracellular metabolites level by measuring phenylalanine level at 250 uM incubated for 72 hrs by GC/MS analysis
[8] = target: T1, Olfactory receptor 51E2 (Homo sapiens); assay: Agonist activity at PSGR/OR51E2 in human LNCaP cells assessed as induction of change in intracellular metabolites level by measuring malic acid level at 250 uM incubated for 72 hrs by GC/MS analysis
[9] = target: T1, Olfactory receptor 51E2 (Homo sapiens); assay: Agonist activity at PSGR/OR51E2 in human LNCaP cells assessed as induction of change in extracellular metabolites level by measuring uric acid level at 250 uM incubated for 72 hrs by GC/MS analysis
[10] = target: T1, Olfactory receptor 51E2 (Homo sapiens); assay: Agonist activity at PSGR/OR51E2 in human LNCaP cells assessed as induction of change in extracellular metabolites level by measuring threose/erythrose level at 250 uM incubated for 72 hrs by GC/MS analysis
[11] = target: T1, Olfactory receptor 51E2 (Homo sapiens); assay: Agonist activity at PSGR/OR51E2 in human LNCaP cells assessed as induction of change in intracellular metabolites level by measuring 3-phosphoglyceric acid level at 250 uM incubated for 72 hrs by GC/MS analysis
[12] = target: T1, Olfactory receptor 51E2 (Homo sapiens); assay: Agonist activity at PSGR/OR51E2 in human LNCaP cells assessed as induction of change in extracellular metabolites level by measuring asparagine level at 250 uM incubated for 72 hrs by GC/MS analysis
[13] = target: T1, Olfactory receptor 51E2 (Homo sapiens); assay: Agonist activity at PSGR/OR51E2 in human LNCaP cells assessed as induction of change in intracellular metabolites level by measuring serine level at 250 uM incubated for 72 hrs by GC/MS analysis
[14] = target: T1, Olfactory receptor 51E2 (Homo sapiens); assay: Agonist activity at PSGR/OR51E2 in human LNCaP cells assessed as induction of change in intracellular metabolites level by measuring glucose-6-phosphate level at 250 uM incubated for 72 hrs by GC/MS analysis
[15] = target: T1, Olfactory receptor 51E2 (Homo sapiens); assay: Agonist activity at PSGR/OR51E2 in human LNCaP cells assessed as induction of change in extracellular metabolites level by measuring glutaric acid level at 250 uM incubated for 72 hrs by GC/MS analysis
[16] = target: T1, Olfactory receptor 51E2 (Homo sapiens); assay: Agonist activity at PSGR/OR51E2 in human LNCaP cells assessed as induction of change in extracellular metabolites level by measuring lysine level at 250 uM incubated for 72 hrs by GC/MS analysis
[17] = target: T1, Olfactory receptor 51E2 (Homo sapiens); assay: Agonist activity at PSGR/OR51E2 in human LNCaP cells assessed as induction of change in extracellular metabolites level by measuring alanine level at 250 uM incubated for 72 hrs by GC/MS analysis
[18] = target: T1, Olfactory receptor 51E2 (Homo sapiens); assay: Agonist activity at PSGR/OR51E2 in human LNCaP cells assessed as induction of change in intracellular metabolites level by measuring threonine level at 250 uM incubated for 72 hrs by GC/MS analysis
[19] = target: T1, Olfactory receptor 51E2 (Homo sapiens); assay: Agonist activity at PSGR/OR51E2 in human LNCaP cells assessed as induction of change in extracellular metabolites level by measuring glycine level at 250 uM incubated for 72 hrs by GC/MS analysis
[20] = target: T1, Olfactory receptor 51E2 (Homo sapiens); assay: Agonist activity at PSGR/OR51E2 in human LNCaP cells assessed as induction of change in intracellular metabolites level by measuring pentonic-acids level at 250 uM incubated for 72 hrs by GC/MS analysis
[21] = target: T1, Olfactory receptor 51E2 (Homo sapiens); assay: Agonist activity at PSGR/OR51E2 in human LNCaP cells assessed as induction of change in intracellular metabolites level by measuring beta-alanine level at 250 uM incubated for 72 hrs by GC/MS analysis
[22] = target: T1, Olfactory receptor 51E2 (Homo sapiens); assay: Agonist activity at PSGR/OR51E2 in human LNCaP cells assessed as induction of change in intracellular metabolites level by measuring ornithine level at 250 uM incubated for 72 hrs by GC/MS analysis
[23] = target: T1, Olfactory receptor 51E2 (Homo sapiens); assay: Agonist activity at PSGR/OR51E2 in human LNCaP cells assessed as induction of change in intracellular metabolites level by measuring fumaric acid level at 250 uM incubated for 72 hrs by GC/MS analysis
[24] = target: T1, Olfactory receptor 51E2 (Homo sapiens); assay: Agonist activity at PSGR/OR51E2 in human LNCaP cells assessed as induction of change in intracellular metabolites level by measuring spermidine level at 250 uM incubated for 72 hrs by GC/MS analysis
[25] = target: T1, Olfactory receptor 51E2 (Homo sapiens); assay: Agonist activity at PSGR/OR51E2 in human LNCaP cells assessed as induction of change in extracellular metabolites level by measuring tyrosine level at 250 uM incubated for 72 hrs by GC/MS analysis
[26] = target: T1, Olfactory receptor 51E2 (Homo sapiens); assay: Agonist activity at PSGR/OR51E2 in human LNCaP cells assessed as induction of change in extracellular metabolites level by measuring lactic acid level at 250 uM incubated for 72 hrs by GC/MS analysis
[27] = target: T1, Olfactory receptor 51E2 (Homo sapiens); assay: Agonist activity at PSGR/OR51E2 in human LNCaP cells assessed as induction of change in extracellular metabolites level by measuring serine level at 250 uM incubated for 72 hrs by GC/MS analysis
[28] = target: T1, Olfactory receptor 51E2 (Homo sapiens); assay: Agonist activity at PSGR/OR51E2 in human LNCaP cells assessed as induction of change in intracellular metabolites level by measuring oleic acid level at 250 uM incubated for 72 hrs by GC/MS analysis
[29] = target: T1, Olfactory receptor 51E2 (Homo sapiens); assay: Agonist activity at PSGR/OR51E2 in human LNCaP cells assessed as induction of change in extracellular metabolites level by measuring guanine level at 250 uM incubated for 72 hrs by GC/MS analysis
[30] = target: T1, Olfactory receptor 51E2 (Homo sapiens); assay: Agonist activity at PSGR/OR51E2 in human LNCaP cells assessed as induction of change in extracellular metabolites level by measuring glutamine level at 250 uM incubated for 72 hrs by GC/MS analysis

Measured: Activity

COc1ccc(NC=O)c(C(=O)CCNC(C)=O)c1
active: all assays above
